Assay results taken from publication PMC7932537, “Quantitative profiling of protease specificity” (PLoS Computational Biology, 2021).

Legend:
[1] = system: MMP-2; assay: Substrate phage display with NGS: relative probability (RP) of P3-P1' tetramer clusters; type: biochemical, human; conditions: MMP2;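 further: ratio of tetramer probability after protease selection to that in naive phage library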
[2] = biological target: MMP-9 (Homo sapiens, UniProt P14780); assay: K(obs) of individual phage substrates (set of 1369); type: biochemical; conditions: MMP9
[3] = biological target: T1, MMP-2 (Homo sapiens, UniProt P08253); assay: as above; type: biochemical; conditions: MMP2
T1 sequence (P08253 110-660): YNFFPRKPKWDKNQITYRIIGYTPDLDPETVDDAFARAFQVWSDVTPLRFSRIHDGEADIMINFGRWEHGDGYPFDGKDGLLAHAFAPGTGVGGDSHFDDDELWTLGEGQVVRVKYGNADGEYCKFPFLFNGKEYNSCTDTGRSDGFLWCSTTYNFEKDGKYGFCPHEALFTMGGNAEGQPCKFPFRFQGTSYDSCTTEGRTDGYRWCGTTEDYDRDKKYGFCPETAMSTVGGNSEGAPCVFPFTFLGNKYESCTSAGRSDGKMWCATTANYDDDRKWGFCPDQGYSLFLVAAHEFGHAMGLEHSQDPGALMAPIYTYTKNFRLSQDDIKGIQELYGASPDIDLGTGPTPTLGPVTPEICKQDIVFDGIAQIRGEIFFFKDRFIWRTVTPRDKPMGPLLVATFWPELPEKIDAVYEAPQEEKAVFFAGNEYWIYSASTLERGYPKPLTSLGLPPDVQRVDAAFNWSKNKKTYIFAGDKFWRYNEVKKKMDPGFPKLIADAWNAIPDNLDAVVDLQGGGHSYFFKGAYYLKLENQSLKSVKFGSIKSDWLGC

[4] = RP of the P3-P1' tetramer contained in the substrate (substrate phage display with NGS)
[5] = individual phage substrates, set of 1369 peptides, hyphen in sequence marks cleavage position
[6] = individual phage substrates, set of 1369 peptides, cleavage position marked by hyphen in sequence
[7] = RP of the P3-P1' tetramer contained in the substrate
[8] = individual phage substrate of the set of 1369 peptides, dash in the sequence marks the cleavage position
[9] = individual phage substrate of the set of 1369 peptides, cleavage position marked by '-'

MMP-9, sequence (P14780 94-707): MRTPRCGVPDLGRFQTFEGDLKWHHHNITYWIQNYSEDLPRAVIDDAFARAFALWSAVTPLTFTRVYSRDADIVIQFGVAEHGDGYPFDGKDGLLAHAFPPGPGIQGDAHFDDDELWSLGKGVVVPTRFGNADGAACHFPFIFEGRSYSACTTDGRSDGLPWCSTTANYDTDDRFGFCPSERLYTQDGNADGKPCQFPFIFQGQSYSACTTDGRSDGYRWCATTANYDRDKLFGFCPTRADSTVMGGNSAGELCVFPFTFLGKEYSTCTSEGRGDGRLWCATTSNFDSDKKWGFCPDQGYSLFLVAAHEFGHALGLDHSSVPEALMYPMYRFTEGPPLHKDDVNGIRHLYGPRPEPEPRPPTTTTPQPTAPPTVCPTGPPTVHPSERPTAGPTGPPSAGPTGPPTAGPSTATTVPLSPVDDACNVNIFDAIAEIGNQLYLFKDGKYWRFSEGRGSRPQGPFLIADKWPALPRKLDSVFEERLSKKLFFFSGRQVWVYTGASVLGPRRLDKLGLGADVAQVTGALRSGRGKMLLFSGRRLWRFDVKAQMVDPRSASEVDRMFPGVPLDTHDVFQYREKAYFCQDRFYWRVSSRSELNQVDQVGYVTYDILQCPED

Substance | relative probability (RP) [1, 4] | Kobs [2, 5] [M⁻¹ s⁻¹] | Kobs [3, 6] [M⁻¹ s⁻¹] | relative probability (RP) [1, 7] | Kobs [2, 8] [M⁻¹ s⁻¹] | Kobs [3, 9] [M⁻¹ s⁻¹]
KWVSM-LTASG | 23.0821 | 1870.4 | 12792.1 |  |  | 
LAWAH-ITASG |  |  |  | 0.05752 | 0 | 1030.73
LLFSQ-LTASG | 9.065 | 0 | 8941.32 |  |  | 
LLYAS-LTASG | 26.9916 | 990.764 | 12792.1 |  |  | 
LLYMG-LTASG | 0.09823 | 799.117 | 874.197 |  |  | 
LNPAF-LTASG |  |  |  | 32.4224 | 8941.32 | 12792.1
LPYFS-MTASG | 0.06612 | 1660.66 | 386.839 |  |  | 
LQSMN-LTASG | 2.165 | 1239.69 | 0 |  |  | 
LSHAW-LTASG | 27.1428 | 56.119 | 12792.1 |  |  | 
LSVFW-LTASG |  |  |  | 13.7679 | 12792.1 | 12792.1
LTPRY-WTASG | 20.9965 | 5461.43 | 5269.78 |  |  | 
LVGNS-LTASG | 0.2884 | 0 | 1981.53 |  |  | 
LVGRA-LTASG |  |  |  | 7.944 | 2476.66 | 6688.74
LWYGH-LTASG | 11.3746 | 0 | 5090.5 |  |  | 
MGMWH-LTASG | 0.2013 | 142.481 | 0 |  |  | 
MKWAA-YTASG |  |  |  | 15.6012 | 585.336 | 12792.1
MNWES-LTASG | 0.6249 | 0 | 517.582 |  |  | 
MSLGN-LTASG | 33.3542 | 292.668 | 12792.1 |  |  | 
MSLGY-LTASG |  |  |  | 24.8925 | 0 | 12792.1
MSPRW-LTASG |  |  |  | 34.1809 | 12792.1 | 12792.1
MSWSA-LTASG |  |  |  | 25.8217 | 113.394 | 12792.1
MVPKW-LTASG |  |  |  | 29.287 | 10866.7 | 7815.03
NHVWP-LTASG |  |  |  | 5.294 | 726.013 | 1154.21
NKVYA-WTASG | 0.6193 | 1711.63 | 799.117 |  |  | 
